Seven molecules from US6235769A, “Methods of preventing and treating neurological disorders with compounds that modulate the function of the C-RET receptor protein tyrosine kinase” (Sugen, Inc., priority 1998, dated 2001) can be followed below.

Holding throughout (format): cell-based
One experiment deals with FLK-1 receptor. The experiment can be described thus: FLK-1 ELISA, catalytic activity of the FLK-1 receptor in FLK-1/NIH3T3 cells. The note with it: concentration that yielded a two-hundred percent increase in catalytic activity in the FLK-1 ELISA. As for the experimental part: An enzyme linked immunosorbant assay (ELISA) can be conducted to measure the catalytic activity of the FLK-1 receptor and more specifically, the inhibition or activation of indolinone compounds of the catalytic activity of the FLK-1 receptor. The following assay was conducted to measure catalytic activity of the FLK-1 receptor in FLK-l/NIH3T3 cells.
One skilled in the art can adapt such a procedure to other receptor tyrosine protein kinases to identify compounds that modulate the function of the receptor.
This type of assay can be developed for nearly any RPTK using well known techniques utilized by persons of ordinary skill in the art. The FLK-1/NIH3T3 cell lines are also created by techniques well known to those skilled in the art. The NIH3T3 cells were stably transfected with gene constructs containing the FLK-1 gene. The nucleic acid vectors used for this type of procedure are commonly and commercially available to those skilled in the art. The methods of cloning the genes of interest into these nucleic acid vectors and the methods of transfecting these nucleic acid constructs into cells are also well known to those skilled in the art. Sambrook, Fritsch, Maniatis, Molecular Cloning, A Laboratory Manual 2nd Ed., Cold Spring Harbor Laboratory Press, 1989.
1. Coat Corning 96-well ELISA plates with 1.0 μg per well Cappel Anti-rabbit IgG antibody in 0.1 M Na2 CO3 pH 9.6. Bring final volume to 150 μL per well. Coat plates overnight at 4° C. Plates can be kept up to two weeks when stored at 4° C.
2. Grow cells in Growth media (DMEM, supplemental with 2.0 mM L-Glutamine, 10% FBS) in suitable culture dishes until confluent at 37° C., 5% CO2.
3. Harvest cells by trypsinization and seed in Corning 25850 polystyrene 96-well roundbottom cell plates, 25.000 cells/well in 200 μL of growth media.
4. Grow cells at least one day at 37° C., 5% CO2.
5. Wash cells with D-PBS 1×.
6. Add 200 μL/well of starvation media (DMEM, 2.0 mM 1-Glutamine, 0.1% FBS). Incubate overnight at 37° C., 5% CO2.
7. Dilute Compounds/Extracts 1:20 in polypropylene 96 well plates using starvation media. Dilute dimethylsulfoxide 1:20 for use in control wells.
8. Remove starvation media from 96 well cell culture plates and add 162 μL of fresh starvation media to each well.
9. Add 18 μL of 1:20 diluted Compound/Extract dilution (from step 7) to each well plus the 1:20 dimethylsulfoxide dilution to the control wells (+/-VEGF), for a final dilution of 1:200 after cell stimulation. Final dimethylsulfoxide is 0.5%. Incubate the plate at 37° C., 5% CO2 for two hours.
10. Remove unbound antibody from ELISA plates by inverting plate to remove liquid. Wash 3 times with TBSW+0.5% ethanolamine, pH 7.0. Pat the plate on a paper towel to remove excess liquid and bubbles.
11. Block plates with TBSW+0.5% Ethanolamine, pH 7.0, 150 μL per well. Incubate plate thirty minutes while shaking on a microtiter plate shaker.
12. Wash plate 3 times as described in step 10.
13. Add 0.5 μg/well affinity purified […] polyclonal rabbit antiserum. Bring final volume to 150 μL/well with TBSW+0.5% ethanolamine pH 7.0. Incubate plate for thirty minutes while shaking.
14. Add 180 μL starvation medium to the cells and stimulate cells with 20 μL/well 10.0 mM sodium ortho vanadate and 500 ng/mL VEGF (resulting in a final concentration of 1.0 mM sodium ortho vanadate and 50 ng/mL VEGF per well) for eight minutes at 37° C., 5% CO2. Negative control wells receive only starvation medium.
15. After eight minutes, media should be removed from the cells and washed one time with 200 μL/well PBS.
16. Lyse cells in 150 μL/well HNTG while shaking at room temperature for five minutes. HNTG formulation includes sodium ortho vanadate, sodium pyro phosphate and EDTA.
17. Wash ELISA plate three times as described in step 10.
18. Transfer cell lysates from the cell plate to ELISA plate and incubate while shaking for two hours. To transfer cell lysate pipette up and down while scrapping the wells.
19. […]

The subject of experiment [1] is sek chimera (mouse SEK transmembrane and cytoplasmic domains fused to chicken TRKA extracellular domain). The experiment can be described thus: Chimeric receptor activation in infected C6 glioma cells (anti-phosphotyrosine immunoblot), sek chimera. Conditions: 50 ng/mL NGF, five minutes. As for the experimental part:
(§1) DNA constructs were generated, which encoded the transmembrane and cytoplasmic domains from human MCK-10, C-RET, mouse SEK, and rat TRKA fused to the chicken TRKA extracellular domain. These chimeric receptor constructs were then inserted into the adenovirus transfer vector, and recombinant viruses were generated and purified. Rat C6 glioma cells were infected with the recombinant viruses, and the resulting chimeric receptors were analyzed via immunoblot analysis.
(§2) The ability to activate the chimeras was evaluated by incubating the infected C6 monolayers with 50 ng/mL NGF for five minutes. The receptors were immunoprecipitated with the CTA antibody, immunoblotted, and probed either with the anti-phosphotyrosine antibody 4G10 or with the CTA antibody preparation.
(§3) C6 glioma cells were grown in Ham's Flo medium containing 10% fetal calf serum; for receptor activation experiments the medium was changed to 0.5% fetal calf serum 12 hours prior to stimulation.

A further experiment concerns rat trkA receptor. The experiment can be described thus: Receptor phosphorylation in cells expressing both rat and chicken trkA, rat receptor. As for the experimental part: (§4) The assumption was tested by expressing both rat and chicken trkA receptors in the same cell and activating them with either neurotrophic growth factor (NGF), which binds both receptors, or with the CTA antibody, which binds only the chick receptor. […] The effects of the CTA antibody preparation were therefore not attributable to activation of endogenous trkA receptors.
(§5) The conditions for immunoprecipitation and immunoblotting used in the experiments were described previously (Clary et al., 1994, Mol. Biol. Cell 5: 549-563) with modifications as follows. Immunoblots were performed in Tris-buffered saline containing 0.1% Triton X-100, and filter blocking and antibody incubations were performed in the same buffer with 1% BSA. In other experiments, anti-phosphotyrosine detection was performed with biotinylated-4G10 monoclonal antibody followed by a peroxidase avidin-biotin complex. Other antibodies were detected with peroxidase coupled anti-mouse IgG, anti-rabbit IgG, or protein A as indicated. All peroxidase conjugates were detected using a chemiluminescence protocol (Pierce Chemical Co. Rockford, Ill.).

The next experiment concerns chicken trkA receptor. The experiment is described as follows: Receptor phosphorylation in cells expressing both rat and chicken trkA, chick receptor. Conditions: NGF or CTA. The method, then: as §4, §5
For experiment [2], the system named is MCK-10 chimera (human MCK-10 transmembrane and cytoplasmic domains fused to chicken TRKA extracellular domain). The experiment is described as follows: Chimeric receptor activation in infected C6 glioma cells (anti-phosphotyrosine immunoblot), MCK-10 chimera. The note with it: 50 ng/mL NGF, before or after incubation. As for the experimental part:
as §1, §2, §3
Background: In western blotting, separated proteins are transferred to a membrane and probed.

For experiment [3], the system named is c-ret chimera (human C-RET transmembrane and cytoplasmic domains fused to chicken TRKA extracellular domain). The experiment is described as follows: Chimeric receptor activation in infected C6 glioma cells (anti-phosphotyrosine immunoblot), c-ret chimera. Conditions: 50 ng/mL NGF, five minutes. As for the experimental part: as §1, §2, §3

In the case of `Cc1cc(C)c(/C=C2\C(=O)Nc3ccc(C(=O)O)cc32)[nH]1` [Indolinone 4], the EC200 with FLK-1 receptor was 2.8 µM. Still for that read-out and setting: the result for `Cc1ccc(/C=C2\C(=O)Nc3ccc(C(=O)O)cc32)s1` [Indolinone 6] reads 46 µM; that for `CCc1cc(CC)c(/C=C2\C(=O)Nc3ccc(C(=O)O)cc32)[nH]1` [Indolinone 2], 2.8 µM. As to “NGF: nerve growth factor, which binds to the extracellular region of the TRK receptor”, the “activation of sek chimera” value in experiment [1] was “NGF-dependent activation of the c-ret and sek chimeras was detected”. The “activation of the rat receptor” value in the experiment on rat trkA receptor was “activation of the rat receptor was detected only after NGF addition”. In addition, the “phosphorylation of the chick receptor” value in the experiment on chicken trkA receptor is reported as “became phosphorylated”. For the same molecule, in experiment [2], the “phosphotyrosine of MCK-10 chimeric protein” value is on record as “Phosphotyrosine was not detected”. Besides, the “activation of c-ret chimera” value in experiment [3] is “NGF-dependent activation of the c-ret and sek chimeras was detected”. The molecule `CC(C)c1cc(C(C)C)c(/C=C2\C(=O)Nc3ccc(C(=O)O)cc32)[nH]1` [Indolinone 1] yielded an EC200 with FLK-1 receptor of 10 µM. `Cc1ccc(/C=C2\C(=O)Nc3ccc(CCC(=O)O)cc32)s1` [Indolinone 5] displayed an EC200 with FLK-1 receptor greater than 100 µM. With `Cc1cc(C)c(/C=C2\C(=O)Nc3ccc(CCC(=O)O)cc32)[nH]1` [Indolinone 3], in the experiment with FLK-1 receptor, the EC200 stood at 32 µM.
